# Source: US20130072899A1, “Pharmaceutical Formulations for Iontophoretic Delivery of Gallium” (Nitric BloTherapeutics, Inc., priority 2008, published 2013)
# Experiments:
# [1] = 25° C., 0.01M; cited from earlier work
# [2] = Effect of pH on skin permeability (tritiated water permeation, Franz cells); type: in vitro ADME, human; conditions: 70 h passive permeation
SMILES,Log β (stability constant) [1],average radioactive count in the receiver compartment ([2]; pH 2),average radioactive count in the receiver compartment ([2]; pH 5)
O=C([O-])CC(O)(CC(=O)[O-])C(=O)[O-].[Ga+3] [Ga citrate],10.02,,
[OH][Ga+][OH] [Ga(OH)2^+],−6.6,,
[Ga+3].[OH-].[OH-].[OH-] [Ga(OH)3],−11.0,,
[OH][Ga-]([OH])([OH])[OH] [Ga(OH)4^−],−15.66,,
[OH][Ga+2] [GaOH^++],−2.9,,
"[3H]O[3H] [tritiated water, Tritiated water]",,55860±25106 DPM/mL,60557±20376 DPM/mL
